# Assay results taken from patent publication US20210008048A1, “COMPOSITIONS AND METHODS FOR CANCER TREATMENT” (Dana-Farber Cancer Institute, Inc., priority 2018, published 2021).
# Where “and” joins values, the source holds several entries; their conditions need not be identical. Equal entries are not always repeated.
# Experiments:
# [1] = cited from earlier work
# TLR8 [2] = target: T1, TLR8 (Homo sapiens, UniProt Q9NR97); conditions: even at high concentrations (>10 μg/ml); cited from earlier work
# T1 construct: expressed in transfected cells; host or cells: HEK293
# T1 sequence (Q9NR97 27-1041): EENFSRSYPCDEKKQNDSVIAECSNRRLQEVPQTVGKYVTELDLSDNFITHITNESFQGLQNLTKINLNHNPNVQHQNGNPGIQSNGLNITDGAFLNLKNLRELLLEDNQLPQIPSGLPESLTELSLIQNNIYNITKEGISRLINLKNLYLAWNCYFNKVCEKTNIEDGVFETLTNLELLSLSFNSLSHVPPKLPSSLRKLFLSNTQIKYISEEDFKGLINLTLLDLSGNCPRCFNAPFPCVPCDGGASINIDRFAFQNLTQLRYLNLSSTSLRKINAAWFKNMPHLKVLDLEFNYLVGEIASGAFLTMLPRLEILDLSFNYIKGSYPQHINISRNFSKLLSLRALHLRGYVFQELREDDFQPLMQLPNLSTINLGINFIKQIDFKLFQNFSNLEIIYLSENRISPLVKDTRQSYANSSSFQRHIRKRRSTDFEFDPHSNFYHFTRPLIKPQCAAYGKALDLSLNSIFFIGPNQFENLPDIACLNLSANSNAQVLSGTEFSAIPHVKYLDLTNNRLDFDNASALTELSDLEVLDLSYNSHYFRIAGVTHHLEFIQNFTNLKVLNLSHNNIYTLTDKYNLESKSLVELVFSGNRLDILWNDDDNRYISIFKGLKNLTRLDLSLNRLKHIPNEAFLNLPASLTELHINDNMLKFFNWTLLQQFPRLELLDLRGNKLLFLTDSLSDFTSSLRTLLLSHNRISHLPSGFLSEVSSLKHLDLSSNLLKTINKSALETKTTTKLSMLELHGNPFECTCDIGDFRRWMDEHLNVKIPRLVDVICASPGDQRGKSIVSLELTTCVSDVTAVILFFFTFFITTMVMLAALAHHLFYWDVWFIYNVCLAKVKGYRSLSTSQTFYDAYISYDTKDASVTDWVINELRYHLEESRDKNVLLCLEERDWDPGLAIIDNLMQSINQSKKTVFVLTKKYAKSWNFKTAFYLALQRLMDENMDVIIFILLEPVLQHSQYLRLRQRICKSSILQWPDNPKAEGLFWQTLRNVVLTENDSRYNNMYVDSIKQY
# TLR7 [3] = target: T2, TLR7 (Homo sapiens, UniProt Q9NYK1); conditions: TLR7-transfected HEK293 cells, cited from earlier work
# T2 construct: expressed in transfected cells; host or cells: HEK293
# T2 sequence (Q9NYK1 27-1049): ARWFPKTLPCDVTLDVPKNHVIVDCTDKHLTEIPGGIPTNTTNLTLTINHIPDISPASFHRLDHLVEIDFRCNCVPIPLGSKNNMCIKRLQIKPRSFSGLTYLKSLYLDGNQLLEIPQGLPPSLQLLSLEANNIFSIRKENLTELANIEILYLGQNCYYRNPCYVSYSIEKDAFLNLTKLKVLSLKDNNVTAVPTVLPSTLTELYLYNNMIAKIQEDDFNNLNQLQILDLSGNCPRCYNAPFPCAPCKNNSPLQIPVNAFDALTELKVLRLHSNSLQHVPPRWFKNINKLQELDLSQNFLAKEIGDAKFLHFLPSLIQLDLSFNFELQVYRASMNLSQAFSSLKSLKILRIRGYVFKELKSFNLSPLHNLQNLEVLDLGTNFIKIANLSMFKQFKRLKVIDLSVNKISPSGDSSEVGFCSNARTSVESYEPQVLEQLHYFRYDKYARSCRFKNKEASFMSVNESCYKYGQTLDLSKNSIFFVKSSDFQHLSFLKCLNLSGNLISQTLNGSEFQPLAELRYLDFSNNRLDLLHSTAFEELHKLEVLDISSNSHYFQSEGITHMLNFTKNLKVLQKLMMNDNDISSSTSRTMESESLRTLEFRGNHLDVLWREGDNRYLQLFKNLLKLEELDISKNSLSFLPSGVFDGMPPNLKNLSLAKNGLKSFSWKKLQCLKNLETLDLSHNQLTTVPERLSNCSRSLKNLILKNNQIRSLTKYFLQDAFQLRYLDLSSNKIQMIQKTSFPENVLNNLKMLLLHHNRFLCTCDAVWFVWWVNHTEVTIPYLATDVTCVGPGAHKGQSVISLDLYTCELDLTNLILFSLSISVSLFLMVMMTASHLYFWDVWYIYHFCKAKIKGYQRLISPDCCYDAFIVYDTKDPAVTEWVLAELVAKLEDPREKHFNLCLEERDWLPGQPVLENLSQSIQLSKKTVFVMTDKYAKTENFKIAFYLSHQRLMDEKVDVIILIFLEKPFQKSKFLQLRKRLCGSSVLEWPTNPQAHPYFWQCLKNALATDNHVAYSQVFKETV
# TLR7 [4] = target: T2, TLR7; conditions: concentrations as low as; cited from earlier work
# TLR8 [5] = target: T1, TLR8; conditions: TLR8-transfected HEK293 cells, cited from earlier work
# [6] = test system: 4T1-Luc2 breast cancer cells; assay: Survival after resection of orthotopic 4T1-Luc2 tumors with a loaded hydrogel implanted at the resection site; assay type: in vivo, female BALB/cJ mice; conditions: crosslinked hyaluronic acid hydrogel loaded with the agent placed in tumor resection site on day 10 post-tumor inoculation; extended local release; versus empty hydrogel
# Experimental: The hydrogels for FIG. 1 were prepared according to the methods described for hydrogel 1 in Table 1. 120 μL of a hyaluronic acid solution (2.0% w/v GLYCOSIL) was pipetted into a mold. One mg of a p38 MAPK inhibitor (e.g., losmapimod (Selleckchem)) was dissolved in 10 μL DMSO, and this solution was added to the hyaluronic acid solution in the mold. Following mixing to create a homogeneous distribution of the payload, 30 μL of a PEG-diacrylate crosslinker solution (12.5% w/v EXTRALINK) was pipetted into the mold. The crosslinked hydrogel solidified in the mold over the course of a few minutes. Female BALB/cJ mice were inoculated orthotopically with 4T1-Luc2 breast cancer cells in their fourth mammary fat pad. On day 10 post-tumor inoculation, tumors (˜100 mm^3) were resected, and a hydrogel (e.g., a crosslinked hyaluronic acid hydrogel) loaded with a p38 MAPK inhibitor (e.g., losmapimod) was placed in the tumor resection site. Empty hydrogel was used as a negative control.
# The hydrogels for FIG. 2 were prepared according to the methods described for hydrogel 1 in Table 1. 120 μL of a hyaluronic acid solution (2.0% w/v GLYCOSIL) was pipetted into a mold. Five hundred μg (40 μL) of an anti-IL-1β antibody (e.g., clone B122 (BioXCell)) was added to the hyaluronic acid solution in the mold. […]
smiles,measurement,setting,value
CCOCc1nc2c(N)nc3ccccc3c2[nH]1 [CL097],water solubility,[1],≥ 20 mg/mL
CCCCNc1nc(N)c2nc(O)n(Cc3ccc(C(=O)NCC(=O)O)cc3)c2n1 [CL264],TLR8 stimulation,TLR8 [2],does not stimulate TLR8
same,concentration inducing NF-κB activation,TLR7 [3],0.1 µM
same,"concentration triggering NF-κB activation, times less than imiquimod",TLR7 [3]; relative to imiquimod,5-10 times
"CCCCNc1nc(N)c2nc(O)n(Cc3ccc(C(=O)NCC(=O)NCCCNCCCCNCCCN)cc3)c2n1 [CL307, N1-glycinyl[4-((6-amino-2-(butylamino)-8-hydroxy-9H-purin-9-yl)methyl)benzoyl] spermine]",concentration inducing robust NF-κB activation,TLR7 [4],20 nM and 10 ng/ml
CCOC(=O)C1=Cc2ccc(-c3cccc(C#N)c3)cc2N=C(N)C1 [TL8-506],potency in inducing NF-κB activation relative to CL075,TLR8 [5]; more potent than CL075,~25 ×
same,potency in inducing NF-κB activation relative to R848,TLR8 [5]; more potent than R848,~50 ×
Cc1c(F)cc(C(=O)NC2CC2)cc1-c1ccc(C(=O)NCC(C)(C)C)cn1 [losmapimod],survival (Kaplan-Meier),[6],Prolonged survival benefit
